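Values below derive from 48-hour exposures of cells grown in 96-well plates, with endpoints linearly interpolated between the two concentrations bracketing the appropriate inhibition level. At the TGI there is no net growth.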
How the values were obtained:
Assay in all cases: inhibition of tumour cell growth, NCI panel, 48 h
NCI-H226 lung = system: NCI-H226 lung
CAKI-1 renal = system: CAKI-1 renal
CCRF-CEM leukemia = system: CCRF-CEM leukemia
MCF7 breast = system: MCF7 breast
EKVX NSCLC = system: EKVX NSCLC
OVCAR-3 ovarian = system: OVCAR-3 ovarian
MOLT-4 leukemia = system: MOLT-4 leukemia
HT29 colon = system: HT29 colon
SF-539 CNS = system: SF-539 CNS
SNB-75 CNS = system: SNB-75 CNS
SW-620 colon = system: SW-620 colon
UACC-62 melanoma = system: UACC-62 melanoma
SF-295 CNS = system: SF-295 CNS
HOP-92 NSCLC = system: HOP-92 NSCLC
ACHN renal = system: ACHN renal
NCI-H23 lung = system: NCI-H23 lung
LOX IMVI melanoma = system: LOX IMVI melanoma
SK-MEL-28 melanoma = system: SK-MEL-28 melanoma
NCI/ADR-RES ovarian = system: NCI/ADR-RES ovarian
HCC-2998 colon = system: HCC-2998 colon
SNB-19 CNS = system: SNB-19 CNS
COLO 205 colon = system: COLO 205 colon
MDA-MB-435 = system: MDA-MB-435
KM12 colon = system: KM12 colon
MALME-3M melanoma = system: MALME-3M melanoma
NCI-H522 lung = system: NCI-H522 lung
RXF 393 renal = system: RXF 393 renal
OVCAR-8 ovarian = system: OVCAR-8 ovarian
A498 renal = system: A498 renal
DU-145 prostate = system: DU-145 prostate
BT-549 breast = system: BT-549 breast
HOP-62 NSCLC = system: HOP-62 NSCLC
OVCAR-4 ovarian = system: OVCAR-4 ovarian
MDA-MB-231 breast = system: MDA-MB-231 breast
K-562 leukemia = system: K-562 leukemia
TK-10 renal = system: TK-10 renal
SN12C renal = system: SN12C renal
786-0 renal = system: 786-0 renal
U251 CNS = system: U251 CNS
IGROV1 ovarian = system: IGROV1 ovarian
M14 melanoma = system: M14 melanoma
A549 NSCLC = system: A549 NSCLC
UO-31 renal = system: UO-31 renal
SK-OV-3 ovarian = system: SK-OV-3 ovarian
HCT-15 colon = system: HCT-15 colon
SR leukemia = system: SR leukemia
HL-60(TB) leukemia = system: HL-60(TB) leukemia
NCI-H460 lung = system: NCI-H460 lung
SK-MEL-5 melanoma = system: SK-MEL-5 melanoma
PC-3 prostate = system: PC-3 prostate
SK-MEL-2 melanoma = system: SK-MEL-2 melanoma
HS 578T breast = system: HS 578T breast
T-47D breast = system: T-47D breast
SF-268 CNS = system: SF-268 CNS
OVCAR-5 ovarian = system: OVCAR-5 ovarian
RPMI-8226 leukemia = system: RPMI-8226 leukemia
UACC-257 melanoma = system: UACC-257 melanoma
HCT-116 colon = system: HCT-116 colon
MDA-N = system: MDA-N

N#Cc1ccccc1OCCOc1ccccc1C#N
TGI (NCI-H226 lung): > 100 µM | TGI (CAKI-1 renal): > 100 µM | TGI (CCRF-CEM leukemia): > 100 µM | TGI (MCF7 breast): > 100 µM | TGI (EKVX NSCLC): > 100 µM | TGI (OVCAR-3 ovarian): > 100 µM | TGI (MOLT-4 leukemia): > 100 µM | TGI (HT29 colon): > 100 µM | TGI (SF-539 CNS): > 100 µM | TGI (SNB-75 CNS): > 100 µM | TGI (SW-620 colon): > 100 µM | TGI (UACC-62 melanoma): > 100 µM | TGI (SF-295 CNS): > 100 µM | TGI (HOP-92 NSCLC): > 100 µM | TGI (ACHN renal): > 100 µM | TGI (NCI-H23 lung): > 100 µM | TGI (LOX IMVI melanoma): > 100 µM | TGI (SK-MEL-28 melanoma): > 100 µM | TGI (NCI/ADR-RES ovarian): > 100 µM | TGI (HCC-2998 colon): > 100 µM | TGI (SNB-19 CNS): > 100 µM | TGI (COLO 205 colon): > 100 µM | TGI (MDA-MB-435): > 100 µM | TGI (KM12 colon): > 100 µM | TGI (MALME-3M melanoma): > 100 µM | TGI (NCI-H522 lung): > 100 µM | TGI (RXF 393 renal): > 100 µM | TGI (OVCAR-8 ovarian): > 100 µM | TGI (A498 renal): > 100 µM | TGI (DU-145 prostate): > 100 µM | TGI (BT-549 breast): > 100 µM | TGI (HOP-62 NSCLC): > 100 µM | TGI (OVCAR-4 ovarian): > 100 µM | TGI (MDA-MB-231 breast): > 100 µM | TGI (K-562 leukemia): > 100 µM | TGI (TK-10 renal): > 100 µM | TGI (SN12C renal): > 100 µM | TGI (786-0 renal): > 100 µM | TGI (U251 CNS): > 100 µM | TGI (IGROV1 ovarian): > 100 µM | TGI (M14 melanoma): > 100 µM | TGI (A549 NSCLC): > 100 µM | TGI (UO-31 renal): > 100 µM | TGI (SK-OV-3 ovarian): > 100 µM | TGI (HCT-15 colon): > 100 µM | TGI (SR leukemia): > 100 µM | TGI (HL-60(TB) leukemia): > 100 µM | TGI (NCI-H460 lung): > 100 µM | TGI (SK-MEL-5 melanoma): > 100 µM | TGI (PC-3 prostate): > 100 µM | TGI (SK-MEL-2 melanoma): > 100 µM | TGI (HS 578T breast): > 100 µM | TGI (T-47D breast): > 100 µM | TGI (SF-268 CNS): > 100 µM | TGI (OVCAR-5 ovarian): > 100 µM | TGI (RPMI-8226 leukemia): > 100 µM | TGI (UACC-257 melanoma): > 100 µM | TGI (HCT-116 colon): > 100 µM

c1ccc(COC[C@H]2O[C@@H](c3ccccc3)C[C@@H](OCc3ccccc3)C2OCc2ccccc2)cc1 (stereo partly drawn)
TGI (CAKI-1 renal): > 10 µM | TGI (CCRF-CEM leukemia): > 10 µM | TGI (MCF7 breast): > 10 µM | TGI (EKVX NSCLC): > 10 µM | TGI (MOLT-4 leukemia): > 10 µM | TGI (SNB-75 CNS): > 10 µM | TGI (SW-620 colon): > 10 µM | TGI (UACC-62 melanoma): > 10 µM | TGI (SF-295 CNS): > 10 µM | TGI (NCI-H23 lung): > 10 µM | TGI (SK-MEL-28 melanoma): > 10 µM | TGI (HCC-2998 colon): > 10 µM | TGI (COLO 205 colon): > 10 µM | TGI (KM12 colon): > 10 µM | TGI (MALME-3M melanoma): > 10 µM | TGI (RXF 393 renal): > 10 µM | TGI (OVCAR-8 ovarian): > 10 µM | TGI (DU-145 prostate): > 10 µM | TGI (MDA-N): > 10 µM | TGI (HOP-62 NSCLC): > 10 µM | TGI (MDA-MB-231 breast): > 10 µM | TGI (TK-10 renal): > 10 µM | TGI (SN12C renal): > 10 µM | TGI (786-0 renal): > 10 µM | TGI (IGROV1 ovarian): > 10 µM | TGI (M14 melanoma): > 10 µM | TGI (A549 NSCLC): > 10 µM | TGI (SK-OV-3 ovarian): > 10 µM | TGI (HCT-15 colon): > 10 µM | TGI (SR leukemia): > 10 µM | TGI (SK-MEL-5 melanoma): > 10 µM | TGI (PC-3 prostate): > 10 µM | TGI (T-47D breast): > 10 µM | TGI (SF-268 CNS): > 10 µM | TGI (RPMI-8226 leukemia): > 10 µM
